Measured values as given in ChEMBL document CHEMBL5653615 (J Biol Chem, 2013).
pIC50: −log10 of the molar value.

Legend:
[1] = target: Cyclin-dependent kinase 5/CDK5 activator 1 (Homo sapiens) (UniProt Q00535+Q15078); test: Inhibition of human CDK5/p35 at 500 nM by HotSpot assay relative to control; type: protein-complex assay
[2] = target: Mitogen-activated protein kinase kinase kinase 8 (Homo sapiens) (UniProt P41279); test: Inhibition of human COT1 at 500 nM by HotSpot assay relative to control
Chain of Mitogen-activated protein kinase kinase kinase 8 (Homo sapiens) (P41279 whole entry): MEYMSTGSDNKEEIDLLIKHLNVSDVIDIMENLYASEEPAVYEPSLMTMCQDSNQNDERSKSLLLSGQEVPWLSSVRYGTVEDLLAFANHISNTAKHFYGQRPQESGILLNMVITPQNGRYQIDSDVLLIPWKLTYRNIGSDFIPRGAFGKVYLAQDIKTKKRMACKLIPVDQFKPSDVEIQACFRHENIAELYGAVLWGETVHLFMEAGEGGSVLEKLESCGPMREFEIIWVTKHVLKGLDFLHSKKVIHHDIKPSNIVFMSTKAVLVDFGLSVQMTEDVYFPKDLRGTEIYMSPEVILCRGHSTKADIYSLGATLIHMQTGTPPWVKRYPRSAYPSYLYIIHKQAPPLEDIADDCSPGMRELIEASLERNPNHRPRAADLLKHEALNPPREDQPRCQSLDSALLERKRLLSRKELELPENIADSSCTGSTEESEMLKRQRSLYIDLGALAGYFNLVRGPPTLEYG

[3] = target: Fibroblast growth factor receptor 1 (Homo sapiens) (UniProt P11362); test: Inhibition of human FGFR1 at 500 nM by HotSpot assay relative to control
Chain of Fibroblast growth factor receptor 1 (Homo sapiens) (P11362 22-822 limits assumed): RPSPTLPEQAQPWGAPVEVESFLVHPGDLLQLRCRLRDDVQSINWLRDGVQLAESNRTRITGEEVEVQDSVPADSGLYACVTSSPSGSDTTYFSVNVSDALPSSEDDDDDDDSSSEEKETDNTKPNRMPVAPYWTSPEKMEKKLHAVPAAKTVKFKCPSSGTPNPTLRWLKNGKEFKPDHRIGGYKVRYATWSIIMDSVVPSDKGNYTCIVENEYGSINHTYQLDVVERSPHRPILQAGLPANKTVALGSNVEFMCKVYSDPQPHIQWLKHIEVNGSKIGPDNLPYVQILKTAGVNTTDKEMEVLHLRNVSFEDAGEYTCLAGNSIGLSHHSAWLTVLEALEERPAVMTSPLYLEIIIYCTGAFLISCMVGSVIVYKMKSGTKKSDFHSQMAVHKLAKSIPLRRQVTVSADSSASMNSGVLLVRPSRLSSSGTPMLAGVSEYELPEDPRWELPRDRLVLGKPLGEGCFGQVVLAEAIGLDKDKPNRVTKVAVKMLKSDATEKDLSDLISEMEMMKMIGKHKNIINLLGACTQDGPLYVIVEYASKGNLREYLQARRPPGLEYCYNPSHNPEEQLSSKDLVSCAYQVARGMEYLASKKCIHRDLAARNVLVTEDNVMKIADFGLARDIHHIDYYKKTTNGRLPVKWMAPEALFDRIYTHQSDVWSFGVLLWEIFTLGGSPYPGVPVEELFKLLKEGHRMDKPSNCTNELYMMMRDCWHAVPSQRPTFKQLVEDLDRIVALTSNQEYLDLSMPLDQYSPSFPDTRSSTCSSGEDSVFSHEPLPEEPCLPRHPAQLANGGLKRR

[4] = target: T1, cAMP-dependent protein kinase catalytic subunit PRKX (Homo sapiens) (UniProt P51817); test: Inhibition of human PRKX at 500 nM by HotSpot assay relative to control
T1 sequence (whole entry): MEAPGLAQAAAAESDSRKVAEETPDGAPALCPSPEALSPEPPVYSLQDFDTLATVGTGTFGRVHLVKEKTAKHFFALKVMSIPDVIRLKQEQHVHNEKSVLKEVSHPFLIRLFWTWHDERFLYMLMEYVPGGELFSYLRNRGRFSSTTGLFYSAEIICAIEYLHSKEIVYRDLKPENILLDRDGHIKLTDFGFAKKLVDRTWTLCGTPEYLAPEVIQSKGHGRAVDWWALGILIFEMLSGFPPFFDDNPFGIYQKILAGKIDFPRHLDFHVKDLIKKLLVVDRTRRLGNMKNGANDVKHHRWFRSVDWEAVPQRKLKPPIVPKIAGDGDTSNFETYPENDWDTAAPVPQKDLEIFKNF

[5] = target: Vascular endothelial growth factor receptor 3 (Homo sapiens) (UniProt P35916); test: Inhibition of human FLT4 at 500 nM by HotSpot assay relative to control
[6] = target: Tyrosine-protein kinase Lck (Homo sapiens) (UniProt P06239); test: Inhibition of human LCK at 500 nM by HotSpot assay relative to control
Chain of Tyrosine-protein kinase Lck (Homo sapiens) (P06239 2-509 limits assumed): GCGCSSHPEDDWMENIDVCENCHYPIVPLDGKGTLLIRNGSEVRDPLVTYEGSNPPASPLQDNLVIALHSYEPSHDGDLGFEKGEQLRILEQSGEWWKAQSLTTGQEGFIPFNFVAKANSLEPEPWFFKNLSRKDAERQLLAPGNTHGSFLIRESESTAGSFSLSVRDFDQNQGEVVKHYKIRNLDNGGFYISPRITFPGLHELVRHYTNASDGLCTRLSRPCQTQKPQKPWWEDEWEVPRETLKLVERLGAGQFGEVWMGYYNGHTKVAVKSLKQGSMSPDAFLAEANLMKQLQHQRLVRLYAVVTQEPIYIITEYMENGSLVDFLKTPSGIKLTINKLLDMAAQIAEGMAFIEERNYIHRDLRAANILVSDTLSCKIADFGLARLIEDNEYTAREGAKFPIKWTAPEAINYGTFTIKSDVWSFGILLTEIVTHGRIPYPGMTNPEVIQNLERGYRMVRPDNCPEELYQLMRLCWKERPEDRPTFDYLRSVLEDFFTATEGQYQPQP

[7] = target: PAS domain-containing serine/threonine-protein kinase (Homo sapiens) (UniProt Q96RG2); test: Inhibition of human PASK at 500 nM by HotSpot assay relative to control
[8] = target: Mitogen-activated protein kinase 9 (Homo sapiens) (UniProt P45984); test: Inhibition of human JNK2 at 500 nM by HotSpot assay relative to control
[9] = target: T2, Serine/threonine-protein kinase A-Raf (Homo sapiens) (UniProt P10398); test: Inhibition of human ARAF at 500 nM by HotSpot assay relative to control
T2 sequence (whole entry): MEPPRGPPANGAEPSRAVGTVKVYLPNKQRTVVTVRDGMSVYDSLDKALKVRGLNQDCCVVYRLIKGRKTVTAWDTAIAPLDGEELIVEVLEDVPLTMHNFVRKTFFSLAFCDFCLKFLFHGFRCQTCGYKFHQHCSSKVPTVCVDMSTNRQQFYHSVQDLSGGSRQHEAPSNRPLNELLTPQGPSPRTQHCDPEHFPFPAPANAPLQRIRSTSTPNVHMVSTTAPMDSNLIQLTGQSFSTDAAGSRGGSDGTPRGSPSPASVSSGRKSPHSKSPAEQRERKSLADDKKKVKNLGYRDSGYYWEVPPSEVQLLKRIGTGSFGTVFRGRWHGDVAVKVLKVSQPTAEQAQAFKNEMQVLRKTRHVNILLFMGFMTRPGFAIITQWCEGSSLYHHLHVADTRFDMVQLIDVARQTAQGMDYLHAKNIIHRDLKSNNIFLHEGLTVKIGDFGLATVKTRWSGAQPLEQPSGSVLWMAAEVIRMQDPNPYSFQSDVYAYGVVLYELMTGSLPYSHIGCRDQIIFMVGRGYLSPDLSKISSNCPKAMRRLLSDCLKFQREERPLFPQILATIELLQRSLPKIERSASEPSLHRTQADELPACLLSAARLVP

[10] = target: T3, Protein kinase C iota type (Homo sapiens) (UniProt P41743); test: Inhibition of human PKCiota at 500 nM by HotSpot assay relative to control
T3 sequence (whole entry): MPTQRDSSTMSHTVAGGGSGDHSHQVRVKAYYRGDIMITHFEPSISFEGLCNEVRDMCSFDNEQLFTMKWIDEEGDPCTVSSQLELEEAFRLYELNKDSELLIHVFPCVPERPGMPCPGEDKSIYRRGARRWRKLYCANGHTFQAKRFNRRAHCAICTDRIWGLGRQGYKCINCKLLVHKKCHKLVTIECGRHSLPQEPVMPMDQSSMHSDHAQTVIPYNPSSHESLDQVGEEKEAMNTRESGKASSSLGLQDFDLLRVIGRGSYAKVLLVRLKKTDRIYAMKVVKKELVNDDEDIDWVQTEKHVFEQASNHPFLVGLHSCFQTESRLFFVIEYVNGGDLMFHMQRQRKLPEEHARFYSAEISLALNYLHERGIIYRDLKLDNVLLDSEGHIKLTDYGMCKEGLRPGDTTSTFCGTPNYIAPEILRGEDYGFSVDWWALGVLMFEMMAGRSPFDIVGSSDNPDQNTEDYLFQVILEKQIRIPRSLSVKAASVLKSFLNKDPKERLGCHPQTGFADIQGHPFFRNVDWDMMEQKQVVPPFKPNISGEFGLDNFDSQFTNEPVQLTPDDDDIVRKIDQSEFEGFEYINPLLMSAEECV

[11] = target: Mitogen-activated protein kinase kinase kinase 9 (Homo sapiens) (UniProt P80192); test: Inhibition of human MAP3K9 at 500 nM by HotSpot assay relative to control
Chain of Mitogen-activated protein kinase kinase kinase 9 (Homo sapiens) (P80192 whole entry, looked up, the tested form may be a part): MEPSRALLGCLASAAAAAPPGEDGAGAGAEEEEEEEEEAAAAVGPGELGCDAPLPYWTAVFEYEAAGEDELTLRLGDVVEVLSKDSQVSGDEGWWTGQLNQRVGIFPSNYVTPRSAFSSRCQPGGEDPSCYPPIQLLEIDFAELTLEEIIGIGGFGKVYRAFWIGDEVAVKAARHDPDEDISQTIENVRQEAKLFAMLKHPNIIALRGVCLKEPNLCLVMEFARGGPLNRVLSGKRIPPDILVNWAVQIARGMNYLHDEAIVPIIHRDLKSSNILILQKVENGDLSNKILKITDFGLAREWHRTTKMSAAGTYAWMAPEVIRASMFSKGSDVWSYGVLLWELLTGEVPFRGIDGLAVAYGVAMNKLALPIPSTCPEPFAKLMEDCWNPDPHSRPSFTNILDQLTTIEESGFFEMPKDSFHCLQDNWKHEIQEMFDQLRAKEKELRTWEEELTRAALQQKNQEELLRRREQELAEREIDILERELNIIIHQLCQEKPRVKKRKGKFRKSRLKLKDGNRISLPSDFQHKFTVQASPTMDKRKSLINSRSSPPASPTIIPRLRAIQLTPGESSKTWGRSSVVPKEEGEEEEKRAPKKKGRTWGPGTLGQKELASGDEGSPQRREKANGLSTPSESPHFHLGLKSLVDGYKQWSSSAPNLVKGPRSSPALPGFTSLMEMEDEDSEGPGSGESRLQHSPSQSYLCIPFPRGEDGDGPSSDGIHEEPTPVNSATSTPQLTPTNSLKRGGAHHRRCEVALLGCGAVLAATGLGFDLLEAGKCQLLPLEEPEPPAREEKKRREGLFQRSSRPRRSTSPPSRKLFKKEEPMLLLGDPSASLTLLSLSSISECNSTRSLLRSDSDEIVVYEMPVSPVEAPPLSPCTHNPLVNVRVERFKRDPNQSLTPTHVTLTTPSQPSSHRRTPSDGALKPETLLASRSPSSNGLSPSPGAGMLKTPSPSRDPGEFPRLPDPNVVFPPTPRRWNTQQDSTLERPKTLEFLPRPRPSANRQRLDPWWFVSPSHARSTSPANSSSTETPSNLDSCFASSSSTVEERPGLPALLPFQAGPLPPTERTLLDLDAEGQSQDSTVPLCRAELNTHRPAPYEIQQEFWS

[12] = target: Insulin-like growth factor 1 receptor (Homo sapiens, UniProt P08069); test: Inhibition of inactive form of IGF-1R (unknown origin) kinase domain incubated for 1 hr by [gamma-33P]ATP assay
Chain of Insulin-like growth factor 1 receptor (P08069 31-736 limits assumed): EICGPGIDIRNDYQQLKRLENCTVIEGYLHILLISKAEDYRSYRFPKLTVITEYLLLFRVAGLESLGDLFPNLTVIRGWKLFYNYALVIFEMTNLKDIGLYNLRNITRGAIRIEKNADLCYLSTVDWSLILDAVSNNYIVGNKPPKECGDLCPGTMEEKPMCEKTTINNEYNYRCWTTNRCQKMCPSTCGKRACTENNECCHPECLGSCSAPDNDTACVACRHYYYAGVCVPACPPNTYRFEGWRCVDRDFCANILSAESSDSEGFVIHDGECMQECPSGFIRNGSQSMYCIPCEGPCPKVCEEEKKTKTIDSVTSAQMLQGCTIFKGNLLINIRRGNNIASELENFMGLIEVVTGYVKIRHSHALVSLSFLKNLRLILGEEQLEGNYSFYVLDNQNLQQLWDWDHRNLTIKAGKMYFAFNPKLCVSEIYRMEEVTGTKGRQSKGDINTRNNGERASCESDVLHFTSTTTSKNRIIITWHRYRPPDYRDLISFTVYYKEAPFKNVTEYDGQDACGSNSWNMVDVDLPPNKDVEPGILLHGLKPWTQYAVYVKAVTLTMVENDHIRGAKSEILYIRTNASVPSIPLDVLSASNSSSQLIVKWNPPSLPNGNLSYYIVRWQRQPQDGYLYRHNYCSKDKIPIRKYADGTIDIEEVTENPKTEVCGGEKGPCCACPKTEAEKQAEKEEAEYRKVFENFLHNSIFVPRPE
Chain of Insulin-like growth factor 1 receptor (P08069 741-1367 limits assumed): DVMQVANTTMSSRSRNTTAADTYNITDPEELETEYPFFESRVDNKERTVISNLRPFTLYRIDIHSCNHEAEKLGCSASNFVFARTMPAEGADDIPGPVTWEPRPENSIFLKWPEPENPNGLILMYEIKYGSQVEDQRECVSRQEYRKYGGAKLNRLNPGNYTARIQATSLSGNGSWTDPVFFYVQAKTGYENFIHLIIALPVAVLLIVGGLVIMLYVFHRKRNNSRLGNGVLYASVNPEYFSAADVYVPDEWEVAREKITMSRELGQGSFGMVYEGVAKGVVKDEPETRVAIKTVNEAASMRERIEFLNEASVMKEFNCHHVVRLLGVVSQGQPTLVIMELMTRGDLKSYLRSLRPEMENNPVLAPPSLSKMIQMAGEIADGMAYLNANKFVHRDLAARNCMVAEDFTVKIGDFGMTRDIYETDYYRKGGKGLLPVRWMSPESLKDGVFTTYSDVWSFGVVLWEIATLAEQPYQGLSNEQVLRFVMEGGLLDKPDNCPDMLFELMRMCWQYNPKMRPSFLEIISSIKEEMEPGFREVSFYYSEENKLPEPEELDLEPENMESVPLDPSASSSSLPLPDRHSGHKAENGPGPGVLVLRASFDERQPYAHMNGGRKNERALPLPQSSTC

[13] = target: Glycogen synthase kinase-3 alpha (Homo sapiens) (UniProt P49840); test: Inhibition of human GSK3a at 500 nM by HotSpot assay relative to control

Chain of Cyclin-dependent kinase 5/CDK5 activator 1 (Homo sapiens) (Q00535 whole entry): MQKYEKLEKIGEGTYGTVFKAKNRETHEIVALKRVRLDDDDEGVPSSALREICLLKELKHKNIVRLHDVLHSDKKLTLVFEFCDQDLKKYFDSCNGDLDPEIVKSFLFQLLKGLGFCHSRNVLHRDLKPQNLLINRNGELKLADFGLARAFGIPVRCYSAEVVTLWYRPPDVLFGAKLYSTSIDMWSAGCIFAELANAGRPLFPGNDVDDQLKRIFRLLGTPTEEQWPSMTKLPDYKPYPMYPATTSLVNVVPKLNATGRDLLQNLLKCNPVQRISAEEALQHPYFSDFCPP
Chain of Cyclin-dependent kinase 5/CDK5 activator 1 (Homo sapiens) (Q15078 99-307 partner limits assumed): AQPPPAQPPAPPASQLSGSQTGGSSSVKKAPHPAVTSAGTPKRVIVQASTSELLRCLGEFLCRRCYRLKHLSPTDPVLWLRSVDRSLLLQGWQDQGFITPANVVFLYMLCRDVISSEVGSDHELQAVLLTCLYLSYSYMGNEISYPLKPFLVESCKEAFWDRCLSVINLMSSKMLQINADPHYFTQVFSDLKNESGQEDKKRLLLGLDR

| SMILES | inhibition [1] [%] | inhibition [2] [%] | inhibition [3] [%] | inhibition [4] [%] | inhibition [5] [%] | inhibition [6] [%] | inhibition [7] [%] | inhibition [8] [%] | inhibition [9] [%] | inhibition [10] [%] | inhibition [11] [%] | pIC50 [12] | inhibition [13] [%] |
| --- | --- | --- | --- | --- | --- | --- | --- | --- | --- | --- | --- | --- | --- |
| Oc1n[nH]c2nnc(-c3c(-c4ccccc4)nn4ccccc34)cc12 | -2.59 | 4.58 | -1.96 | -3.08 | 0.44 | -0.49 | -0.26 | 11.7 | 2.19 | 1.33 | -2.83 | 4.99 | -1.18 |
| Nc1n[nH]c2nnc(-c3c(-c4ccccc4)nn4ccccc34)cc12 | -4.88 | 4.98 | 5.28 | -0.73 | 10.1 | 4.93 | 0.21 | 51.6 | 1.59 | 1.7 | 0.07 | 4.49 | 18.9 |
